Experimental data reported in patent US12643906B2, “Fused aza-heterocyclic amide compound and use thereof” (CSPC ZHONGQI PHARMACEUTICAL TECHNOLOGY (SHIJIAZHUANG) CO., …, priority 2020, dated 2026).
Like-named read-outs stand apart in the source and are kept apart here.

Columns and labels:
[1] = test system: Ba/F3 LMNA-NTRK1-G595R model; conditions: gavage
Method: (§1) The cells in the logarithmic growth phase were collected and re-suspending in serum-free culture medium to make the cell concentration at […] cells/mL. The cell suspension was added with equal volume of Matrigel to make the final cell concentration at 3×10^7-5×10^7 cells/mL. The animal model was established by subcutaneously inoculating 0.1 mL of tumor cell suspension in the axilla of the forelimb of NuNu mice (female, 4-6 weeks, Beijing Vital River Laboratory Animal Technology Co., Ltd.) in an amount of 3×10^6-5×10^6 cells/mouse.
(§2) The maximum and the minimum tumor diameters of the xenografts in nude mice were measured using a vernier caliper, and the tumor volume (TV) was calculated according to the formula: V=½×a×b^2, where a and b represent the maximum and minimum diameters of the tumor mass, respectively. Nude mice with appropriate tumor volume were selected and the mice were evenly divided into 7 groups of 6 mice (100-200 mm^3) by tumor volume using a random number method.
(§3) Tumor diameters were measured twice weekly and tumor volume was calculated. […] (where Ti represents the mean tumor volume of a certain administration group on a certain day; TO represents the mean tumor volume of the administration group at the start of administration, Vi represents the mean tumor volume of the vehicle control group on a certain day (same day as Ti) and V0 represents the mean tumor volume of the vehicle control group at the start of administration); • Tumor inhibition rate: at the end of the test, the animals were executed by removing the cervical vertebrae.

[2] = test system: Ba/F3 LMNA-NTRK1-G667C model; conditions: 100 mg/kg, gavage
Method: as §1, §2, §3

[3] = target: T1, ROS1 (Homo sapiens, UniProt P08922); test: Kinase inhibition assay with fluorescein labeled peptide, ROS1; type: biochemical
T1 construct: purchased Carna 08-163
Method: Compounds were diluted to a certain concentration in DMSO with 4-fold gradients. The compound with a certain concentration, an enzyme solution and DMSO were added into a 384-well plate, and the plate was incubated at room temperature for 10 min. […] The plate was subjected to reading.

[4] = target: T2, TRKB (Homo sapiens, UniProt Q16620); test: HTRF kinase inhibition assay, TRKB; type: biochemical
T2 construct: purchased Bioduro
Method: (§4) The compound to be tested with a certain concentration gradient and an enzyme solution were successively added into a plate (kinase buffer (1× kinase buffer (Cisbio, Cat #62EZBFDD), pH 7.5; 5 mM MgCl2, 1 mM DTT) was added into negative control wells), and the compound plate was centrifuged at 1000 rpm for 30 seconds. The plate was sealed and incubated in a Constant Temperature Incubator at 25° C. for 30 min. A substrate solution containing TK-Sub-biotin (Cisbio, Cat #61TKOBL) and ATP (Sigma, Cat #R0441) was prepared, the substrate solution was added into a 384-well plate, and the plate was centrifuged at 1000 rpm for 30 seconds. The plate was sealed and incubated in a Constant Temperature Incubator at 25° C. for 60 min.
TK antibody and XL665 were diluted, mixed and added into the assay plate, and the plate was centrifuged at 1000 rpm for 30 seconds. The plate was sealed and incubated in a Constant Temperature incubator Incubator at 25° C. for 60 min. The assay plate was placed on an Envision reader for reading.
(§5) Data were fitted in XLFit excel add-in version 5.4.0.8 to obtain IC50 values.

[5] = target: T3, Ba/F3 ETV6-NTRK3-G623R (Homo sapiens, UniProt Q16288, G623R, cells depend on it); test: In vitro cell proliferation inhibition (MTT); type: cell-based, murine; conditions: 72 h, read-out: IC50 Ba/F3 ETV6-NTRK3-G623R
T3 construct: fused on or other part: P41212 (Transcription factor ETV6)
Method: (§6) Cells in the logarithmic growth phase were harvested and counted using a […]. The cell suspension with a certain density was pipetted uniformly and seeded into a 96-well plate with each well of 100 μL, and shaken to make the cells uniformly disperse into the wells. 100 μL of compound solution with certain concentration gradient was added into each well, and 3 duplicate wells were set for each concentration. The plate was cultured in a CO2 incubator at 37° C. for 72 h. 20 μL of MTT working solution (5 mg/mL) was added into each well, and the plate was placed at 37° C. for 4 h, and centrifuged at 1000 rpm for 5 min by a plate centrifuge. After 180 μL of culture medium was discarded, the plate was added with 150 μL of DMSO, and mixed well with a microplate shaker, the plate bottom was wiped, and optical density (OD) at 550 nm was detected with a microplate reader.

[6] = target: T4, Ba/F3 LMNA-NTRK1-G595R (Homo sapiens, UniProt P04629, G595R, cells depend on it); test: In vitro cell proliferation inhibition (MTT); type: cell-based, murine; conditions: 72 h, read-out: IC50 Ba/F3 LMNA-NTRK1-G595R
T4 construct: fused on or other part: P02545 (Prelamin-A/C)
Method: as §6

[7] = target: T5, Ba/F3 LMNA-NTRK1-G667C (Homo sapiens, UniProt P04629, G667C, cells depend on it); test: In vitro cell proliferation inhibition (MTT); type: cell-based, murine; conditions: 72 h, read-out: IC50 Ba/F3 LMNA-NTRK1-G667C
T5 construct: fused on or other part: P02545 (Prelamin-A/C)
Method: as §6

[8] = target: T6, Ba/F3 ETV6-NTRK2 (Homo sapiens, UniProt Q16620); test: In vitro cell proliferation inhibition (MTT); type: cell-based, murine; conditions: 72 h, read-out: IC50 Ba/F3 ETV6-NTRK2
T6 construct: fused on or other part: P41212 (Transcription factor ETV6)
Method: as §6

[9] = target: T7, Ba/F3 LMNA-NTRK1 (Homo sapiens, UniProt P04629); test: In vitro cell proliferation inhibition (MTT); type: cell-based, murine; conditions: 72 h, read-out: IC50 Ba/F3 LMNA-NTRK1
T7 construct: fused on or other part: P02545 (Prelamin-A/C)
Method: as §6

[10] = target: T8, TRKA(G667C) (Homo sapiens, UniProt P04629, G667C); test: HTRF kinase inhibition assay, TRKA(G667C); type: biochemical
T8 construct: purchased signalchem
Method: as §4
(§7) TK antibody and XL665 were diluted, mixed and added into the assay plate, and the plate was centrifuged at 1000 rpm for 30 seconds. The plate was sealed and incubated in a Constant Temperature incubator Incubator at 25° C. for 60 min. The assay plate was placed on an Envision reader for reading. (HTRF 665/615 ratio: signal value at 665 nm/signal value at 615 nm) Inhibition=(rationegative control well−ratiocompound well)/(rationegative control well−ratioenzyme-free control well)×100% 1.3 Data Analysis and Curve Fitting
as §5

[11] = target: T9, TRKC(G623R) (Homo sapiens, UniProt Q16288, G623R); test: HTRF kinase inhibition assay, TRKC(G623R); type: biochemical
T9 construct: purchased Bioduro
Method: as §4, §7, §5

O=C(Nc1ccc(N2CCN(C(=O)CO)CC2)cc1)c1cnn2ccc(N3C[C@@H](F)C[C@@H]3c3cc(F)ccc3F)nc12 [Compound 4, 5-((2R,4S)-2-(2,5-difluorophenyl)-4-fluoropyrrolidin-1-yl)-N-(4-(4-(2-hydroxyacetyl)piperazin-1-yl)phenyl)pyrazolo[1,5-a]pyrimidine-3-carboxamide]
Number of animals (Survival/total) ([1]; 50 mg/kg): (6/6)
Rate of weight gain (%) ([1]; 50 mg/kg): 10.66%
TGI (%) ([1]; 50 mg/kg): 136.9%
Tumor volume (mm^3) ([1]; 50 mg/kg): 15.7 ± 12.6 mm^3
Tumor weight ([1]; 50 mg/kg): 0.02 ± 0.01 g
Tumor weight inhibition rate (%) ([1]; 50 mg/kg): 96.16%
Number of animals (Survival/total) ([1]; 100 mg/kg): (6/6)
Rate of weight gain (%) ([1]; 100 mg/kg): 8.32%
TGI (%) ([1]; 100 mg/kg): 138.0%
Tumor volume (mm^3) ([1]; 100 mg/kg): 11.3 ± 9.7 mm^3
Tumor weight ([1]; 100 mg/kg): 0.02 ± 0.01 g
Tumor weight inhibition rate (%) ([1]; 100 mg/kg): 96.83%
Number of animals (Survival/total) [2]: (6/6)
Rate of weight gain (%) [2]: 8.16%
TGI (%) [2]: 84.0%
Tumor volume (mm^3) [2]: 197.5 ± 85.4 mm^3
Tumor weight [2]: 0.21 ± 0.08 g
Tumor weight inhibition rate (%) [2]: 61.17%
IC50 [3]: 0.19 nM
IC50 [4]: 0.986 nM
GI50 [5]: 0.674 nM
GI50 [6]: 0.166 nM
GI50 [7]: 2.21 nM
GI50 [8]: 1.77 nM
GI50 [9]: 0.729 nM
IC50 [10]: 0.183 nM
IC50 [11]: 0.205 nM
